Columns and labels:
Test in all cases: viability relative to DMSO control (fraction); higher = less drug effect (more viable cells)
Details in all cases: 48 h
[1] = test system: primary ALL patient cells (S048)
How it was run: (§1)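 Cells were incubated for 48 h at 37 °C and 5% CO2 in RPMI-1640 with penicillin/streptomycin, L-glutamine and human serum, at 4 × 10^4 cells per well in 384-well plates with compounds pre-plated at five concentrations, one well each. These were primary mononuclear tumour cells, fresh or cryopreserved, Ficoll-isolated from blood or bone marrow or obtained from processed lymph node. Viability values are CellTiter-Glo luminescence relative to the median of 16 inner DMSO wells.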

[2] = test system: primary AML patient cells (S055)
How it was run: as §1

[3] = test system: primary AML patient cells (S091)
How it was run: as §1

[4] = test system: primary MCL patient cells (S041)
How it was run: as §1

[5] = test system: primary MCL patient cells (S068)
How it was run: as §1

[6] = test system: primary T-PLL patient cells (S008)
How it was run: as §1

[7] = test system: primary AML patient cells (S006)
How it was run: as §1

[8] = test system: primary AML patient cells (S079)
How it was run: as §1

[9] = test system: primary MCL patient cells (S063)
How it was run: as §1

[10] = test system: primary FL patient cells (S087)
How it was run: as §1

[11] = test system: primary AML patient cells (S037)
How it was run: as §1

[12] = test system: primary DLBCL patient cells (S082)
How it was run: as §1

[13] = test system: primary MCL patient cells (S053)
How it was run: as §1

[14] = test system: primary CLL patient cells (S031)
How it was run: as §1

[15] = test system: primary AML patient cells (S056)
How it was run: as §1

[16] = test system: primary AML patient cells (S009)
How it was run: as §1

[17] = test system: primary AML patient cells (S072)
How it was run: as §1

[18] = test system: primary FL patient cells (S022)
How it was run: as §1

[19] = test system: primary AML patient cells (S089)
How it was run: as §1

[20] = test system: primary AML patient cells (S012)
How it was run: as §1

## O=C(Nc1cccc(C(F)(F)F)c1)Nc1cc(S(=O)(=O)NC2CC2)ccc1-c1ccsc1 [AGI-6780]
[1]; 0.024 µM
  viability: 0.7
[1]; 0.12 µM
  viability: 0.636
[1]; 0.6 µM
  viability: 0.599
[1]; 3 µM
  viability: 0.622
[1]; 15 µM
  viability: 0.61
[2]; 0.024 µM
  viability: 0.912
[2]; 0.12 µM
  viability: 0.919
[2]; 0.6 µM
  viability: 0.874
[2]; 3 µM
  viability: 0.859
[2]; 15 µM
  viability: 0.85
[3]; 0.024 µM
  viability: 1.02
[3]; 0.12 µM
  viability: 1.05
[3]; 0.6 µM
  viability: 0.975
[3]; 3 µM
  viability: 0.989
[3]; 15 µM
  viability: 0.924
[4]; 0.024 µM
  viability: 0.913
[4]; 0.12 µM
  viability: 0.898
[4]; 0.6 µM
  viability: 0.856
[4]; 3 µM
  viability: 0.868
[4]; 15 µM
  viability: 0.806
[5]; 0.024 µM
  viability: 0.751
[5]; 0.12 µM
  viability: 0.809
[5]; 0.6 µM
  viability: 0.786
[5]; 3 µM
  viability: 0.722
[5]; 15 µM
  viability: 0.798
[6]; 0.024 µM
  viability: 0.865
[6]; 0.12 µM
  viability: 0.979
[6]; 0.6 µM
  viability: 0.937
[6]; 3 µM
  viability: 0.863
[6]; 15 µM
  viability: 0.825
[7]; 0.024 µM
  viability: 0.94
[7]; 0.12 µM
  viability: 1.01
[7]; 0.6 µM
  viability: 1.02
[7]; 3 µM
  viability: 0.974
[7]; 15 µM
  viability: 0.993
[8]; 0.024 µM
  viability: 0.935
[8]; 0.12 µM
  viability: 0.943
[8]; 0.6 µM
  viability: 0.925
[8]; 3 µM
  viability: 0.887
[8]; 15 µM
  viability: 0.802
[9]; 0.024 µM
  viability: 0.935
[9]; 0.12 µM
  viability: 0.969
[9]; 0.6 µM
  viability: 0.96
[9]; 3 µM
  viability: 0.843
[9]; 15 µM
  viability: 0.982
[10]; 0.024 µM
  viability: 0.891
[10]; 0.12 µM
  viability: 0.944
[10]; 0.6 µM
  viability: 0.923
[10]; 3 µM
  viability: 0.906
[10]; 15 µM
  viability: 0.798
[11]; 0.024 µM
  viability: 0.971
[11]; 0.12 µM
  viability: 1.02
[11]; 0.6 µM
  viability: 0.955
[11]; 3 µM
  viability: 0.877
[11]; 15 µM
  viability: 0.889
[12]; 0.024 µM
  viability: 0.796
[12]; 0.12 µM
  viability: 0.96
[12]; 0.6 µM
  viability: 0.91
[12]; 3 µM
  viability: 0.905
[12]; 15 µM
  viability: 0.983
[13]; 0.024 µM
  viability: 0.741
[13]; 0.12 µM
  viability: 0.807
[13]; 0.6 µM
  viability: 0.851
[13]; 3 µM
  viability: 0.788
[13]; 15 µM
  viability: 0.88
[14]; 0.024 µM
  viability: 0.679
[14]; 0.12 µM
  viability: 0.703
[14]; 0.6 µM
  viability: 0.727
[14]; 3 µM
  viability: 0.701
[14]; 15 µM
  viability: 0.612
[15]; 0.024 µM
  viability: 1.03
[15]; 0.12 µM
  viability: 0.821
[15]; 0.6 µM
  viability: 0.834
[15]; 3 µM
  viability: 0.783
[15]; 15 µM
  viability: 0.7
[16]; 0.024 µM
  viability: 0.807
[16]; 0.12 µM
  viability: 0.796
[16]; 0.6 µM
  viability: 0.875
[16]; 3 µM
  viability: 0.834
[16]; 15 µM
  viability: 0.749
[17]; 0.024 µM
  viability: 0.98
[17]; 0.12 µM
  viability: 0.904
[17]; 0.6 µM
  viability: 0.884
[17]; 3 µM
  viability: 0.764
[17]; 15 µM
  viability: 0.769
[18]; 0.024 µM
  viability: 0.826
[18]; 0.12 µM
  viability: 0.782
[18]; 0.6 µM
  viability: 0.821
[18]; 3 µM
  viability: 0.835
[18]; 15 µM
  viability: 0.775
[19]; 0.024 µM
  viability: 0.717
[19]; 0.12 µM
  viability: 0.925
[19]; 0.6 µM
  viability: 0.822
[19]; 3 µM
  viability: 0.84
[19]; 15 µM
  viability: 0.637
[20]; 0.024 µM
  viability: 1.03
[20]; 0.12 µM
  viability: 1.01
[20]; 0.6 µM
  viability: 1
[20]; 3 µM
  viability: 0.941
[20]; 15 µM
  viability: 0.868

## CC(C)c1cc(-c2n[nH]c(=O)n2-c2ccc3c(ccn3C)c2)c(O)cc1O [Ganetespib]
[1]; 0.0032 µM
  viability: 0.9
[1]; 0.016 µM
  viability: 0.632
[1]; 0.08 µM
  viability: 0.517
[1]; 0.4 µM
  viability: 0.48
[1]; 2 µM
  viability: 0.453
[2]; 0.0032 µM
  viability: 0.976
[2]; 0.016 µM
  viability: 0.928
[2]; 0.08 µM
  viability: 0.403
[2]; 0.4 µM
  viability: 0.368
[2]; 2 µM
  viability: 0.337
[3]; 0.0032 µM
  viability: 0.926
[3]; 0.016 µM
  viability: 0.901
[3]; 0.08 µM
  viability: 0.364
[3]; 0.4 µM
  viability: 0.259
[3]; 2 µM
  viability: 0.26
[4]; 0.0032 µM
  viability: 0.98
[4]; 0.016 µM
  viability: 0.846
[4]; 0.08 µM
  viability: 0.533
[4]; 0.4 µM
  viability: 0.406
[4]; 2 µM
  viability: 0.404
[5]; 0.0032 µM
  viability: 1.02
[5]; 0.016 µM
  viability: 1.13
[5]; 0.08 µM
  viability: 0.532
[5]; 0.4 µM
  viability: 0.535
[5]; 2 µM
  viability: 0.545
[6]; 0.0032 µM
  viability: 0.937
[6]; 0.016 µM
  viability: 1
[6]; 0.08 µM
  viability: 0.939
[6]; 0.4 µM
  viability: 0.988
[6]; 2 µM
  viability: 0.961
[7]; 0.0032 µM
  viability: 0.846
[7]; 0.016 µM
  viability: 0.154
[7]; 0.08 µM
  viability: 0.134
[7]; 0.4 µM
  viability: 0.198
[7]; 2 µM
  viability: 0.186
[8]; 0.0032 µM
  viability: 0.983
[8]; 0.016 µM
  viability: 0.825
[8]; 0.08 µM
  viability: 0.398
[8]; 0.4 µM
  viability: 0.352
[8]; 2 µM
  viability: 0.332
[9]; 0.0032 µM
  viability: 1
[9]; 0.016 µM
  viability: 1.05
[9]; 0.08 µM
  viability: 0.136
[9]; 0.4 µM
  viability: 0.0898
[9]; 2 µM
  viability: 0.0823
[10]; 0.0032 µM
  viability: 1.01
[10]; 0.016 µM
  viability: 1.01
[10]; 0.08 µM
  viability: 0.853
[10]; 0.4 µM
  viability: 0.881
[10]; 2 µM
  viability: 0.848
[11]; 0.0032 µM
  viability: 0.976
[11]; 0.016 µM
  viability: 0.988
[11]; 0.08 µM
  viability: 0.947
[11]; 0.4 µM
  viability: 0.979
[11]; 2 µM
  viability: 0.937
[12]; 0.0032 µM
  viability: 1.02
[12]; 0.016 µM
  viability: 1.12
[12]; 0.08 µM
  viability: 1.09
[12]; 0.4 µM
  viability: 1.04
[12]; 2 µM
  viability: 1.02
[13]; 0.0032 µM
  viability: 0.941
[13]; 0.016 µM
  viability: 0.809
[13]; 0.08 µM
  viability: 0.326
[13]; 0.4 µM
  viability: 0.332
[13]; 2 µM
  viability: 0.325
[14]; 0.0032 µM
  viability: 0.998
[14]; 0.016 µM
  viability: 0.873
[14]; 0.08 µM
  viability: 0.324
[14]; 0.4 µM
  viability: 0.267
[14]; 2 µM
  viability: 0.256
[15]; 0.0032 µM
  viability: 0.705
[15]; 0.016 µM
  viability: 0.203
[15]; 0.08 µM
  viability: 0.137
[15]; 0.4 µM
  viability: 0.176
[15]; 2 µM
  viability: 0.169
[16]; 0.0032 µM
  viability: 0.953
[16]; 0.016 µM
  viability: 0.743
[16]; 0.08 µM
  viability: 0.542
[16]; 0.4 µM
  viability: 0.56
[16]; 2 µM
  viability: 0.567
[17]; 0.0032 µM
  viability: 1.01
[17]; 0.016 µM
  viability: 0.884
[17]; 0.08 µM
  viability: 0.412
[17]; 0.4 µM
  viability: 0.39
[17]; 2 µM
  viability: 0.377
[18]; 0.0032 µM
  viability: 0.919
[18]; 0.016 µM
  viability: 0.865
[18]; 0.08 µM
  viability: 0.833
[18]; 0.4 µM
  viability: 0.764
[18]; 2 µM
  viability: 0.727
[19]; 0.0032 µM
  viability: 0.692
[19]; 0.016 µM
  viability: 0.371
[19]; 0.08 µM
  viability: 0.182
[19]; 0.4 µM
  viability: 0.254
[19]; 2 µM
  viability: 0.215
[20]; 0.0032 µM
  viability: 0.991
[20]; 0.016 µM
  viability: 0.964
[20]; 0.08 µM
  viability: 0.131
[20]; 0.4 µM
  viability: 0.126
[20]; 2 µM
  viability: 0.121

Source: the supplement of paper PMC10733146
